# Values quoted from earlier work as cited in US6676926B2, “Radiopharmaceuticals for diagnosing Alzheimer's disease” (Schering Aktiengesellschaft, priority 2000, dated 2004).
# Legend:
# [1] = normal mice
# synthetic-amyloid = settings: in vitro
smiles,measurement,setting,value
O=C(O)c1cc(/N=N/c2ccc(-c3ccc(/N=N/c4ccc(O)c(C(=O)O)c4)cc3)cc2)ccc1O [Chrysamine G],blood-brain barrier passage,[1],crosses the blood-brain barrier
same,binding to synthetic amyloid,synthetic-amyloid,binds synthetic-amyloid well
